The record followed here is article PMC7614683, “A small molecule PI3Kα activator for cardioprotection and neuroregeneration” (Nature, 2023).

One experiment deals with T1, full length p110α/p85α (Homo sapiens, UniProt P42336).
T1 construct: Full-length human p110α was expressed either in a complex with full-length human p85α (for HTS, biochemistry and HDX-MS); 6xHis tag followed by TEV protease site (N); host or cells: Spodoptera frugiperda Sf9, baculovirus
The experiment is described as follows: Differential scanning fluorimetry. Particulars: mean ± SD, n=3; read-out: Kd for PI3Kα by differential scanning fluorimetry. In kind it is binding. Here is the method: Thermal denaturation was followed using intrinsic protein fluorescence measured with the NanoTemper Prometheus NT48 instrument (Nanotemper Technologies, München, Germany). Samples in HBS-P (Cytiva) supplemented with 5% (v/v) DMSO containing 3 μM full length p110α/p85α and a 1:2 dilution series of 1938 (from 440 μM to 13.8 nM) were loaded into standard capillaries and heated at 2 °C/min from 15 to 95 °C. The first derivative of the fluorescence emission ratio 350/330 nm were analyzed using the PR.ThermControl v2.3.1 (NanoTemper), to define the Tm. Independent experiments using the same protein and compound stocks were performed in triplicate. Data were fitted using Prism 9.4.1 (GraphPad Software Inc). Dissociation constants were calculated using fits to a single-site ligand depletion model: (2) T=T0+(T1−T0){([CT]+[PT]+[KD])−([CT]+[PT]+KD)^2−4[CT][PT]}/2[PT] where T0 and T1 are the Tm in the absence of titrating compound and at saturation respectively, [PT] and [CT] are the total concentrations of protein and compound respectively and KD is the dissociation constant.
On the technique in general: In DSF a fluorescence change marks the thermal transition of the protein.

In another experiment the test system is PI3Kα-KO MEFs. In words: Mass spectrometry-based phosphoproteomics, PI3Kα-KO MEFs. In kind it is cell-based, mouse. Here is the method:
PI3Kα-WT and PI3Kα-KO MEFs, grown in 15 cm dishes, were serum-starved overnight in DMEM with 1% penicillin-streptomycin and stimulated by the addition of 0.05% DMSO, 5 μM 1938 in final 0.05% DMSO or 100 nM insulin (Sigma #I5016) for 15 min or 4 h. Cells were lysed in 500 μl urea lysis buffer [50 mM triethylammonium bicarbonate, 8 M urea, cOmplete™ EDTA-free protease inhibitor cocktail (1:50 dilution) (Roche #11873580001), 1 PhosSTOP tablet (Roche #4906845001) per 10 ml of lysis buffer, 1 mM sodium orthovanadate] and lysates sonicated until clear for ~10 min with cooling breaks on ice. Protein concentration was measured using a BCA protein assay (Pierce #23227). 300 μg of protein was reduced with 5 mM Tris(2-carboxyethyl)phosphine hydrochloride (Sigma #C4706) at 37°C for 20 min and alkylated using 10 mM 2-chloroacetamide (Sigma #22790) for 20 min at room temperature in the dark. Proteins were digested with LysC (#129-02541; FUJIFILM Wako Chemicals, Osaka, Japan) for 3.5 h at 30°C. Samples were then diluted with 50 mM triethylammonium bicarbonate (Sigma #T7408) to reduce the urea concentration to 1.5 M, followed by an overnight peptide digestion with trypsin (Promega #V5113) at 37°C. Digest reactions were quenched by the addition of 10% trifluoroacetic acid (EMD Millipore #302031-M) to a final pH of 2.0. Sample desalting was performed using 35-350 μg C18 columns (HMM S18V; The Nest Group, Inc., Southborough, MA, USA) according to the manufacturer’ specifications. TiO2 (Hichrome Titansphere TiO2, 10 μm capacity, 100 mg, GL Sciences #5020-75010) was used for phosphoenrichment. Following peptide loading onto TiO2, the beads were sequentially washed with 1 M glycolic acid (Sigma #124737)/80% acetonitrile/5% trifluoroacetic acid, followed by 80% acetonitrile/0.2% trifluoroacetic acid and 20% acetonitrile before elution with 5% ammonium hydroxide. Enriched samples were desalted using 7-70 μg C18 columns (HUM S18V; The Nest Group, Inc., Southborough, MA, USA) according to the manufacturer’s specifications. Dried phosphopeptide samples were stored at -80°C and resuspended in 10% formic acid immediately prior to analysis. nLC-MS/MS was performed on a Q-Exactive Orbitrap Plus interfaced to a NANOSPRAY FLEX ion source and coupled to an Easy-nLC 1000 (Thermo Scientific). Fifty percent of each sample was analysed as 10 μl injections. Peptides were separated on a 27 cm fused silica emitter, 75 μm diameter, packed in-house with Reprosil-Pur 200 C18-AQ, 2.4 μm resin (Dr. Maisch, Ammerbuch-Entringen, Germany) using a linear gradient from 5% to 30% acetonitrile/0.1% formic acid over 180 min, at a flow rate of 250 nl/min. Peptides were ionised by electrospray ionisation using 1.9 kV applied immediately prior to the analytical column via a microtee built into the nanospray source with the ion transfer tube heated to 320°C and the S-lens set to 60%. Precursor ions were measured in a data-dependent mode in the orbitrap analyser at a resolution of 70,000 and a target value of 3e6 ions. The ten most intense ions from each MS1 scan were isolated, fragmented in the HCD cell, and measured in the Orbitrap at a resolution of 17,500.
Raw data were analysed with MaxQuant[72] (version 1.5.5.1) where they were searched against the mouse UniProt database (http://www.uniprot.org/, downloaded 04/12/2018) using default settings. Carbamidomethylation of cysteines was set as fixed modification, and oxidation of methionines, acetylation at protein N-termini, phosphorylation (on S, T or Y) were set as variable modifications. Enzyme specificity was set to trypsin with maximally 2 missed cleavages allowed. To ensure high confidence identifications, peptide-spectral matches, peptides, and proteins were filtered at a less than 1% false discovery rate (FDR). Label-free quantification in MaxQuant was used with a LFQ minimum ratio count of 2, Fast LFQ selected and the ‘skip normalisation’ option selected. […]

T1 sequence (P42336 whole entry): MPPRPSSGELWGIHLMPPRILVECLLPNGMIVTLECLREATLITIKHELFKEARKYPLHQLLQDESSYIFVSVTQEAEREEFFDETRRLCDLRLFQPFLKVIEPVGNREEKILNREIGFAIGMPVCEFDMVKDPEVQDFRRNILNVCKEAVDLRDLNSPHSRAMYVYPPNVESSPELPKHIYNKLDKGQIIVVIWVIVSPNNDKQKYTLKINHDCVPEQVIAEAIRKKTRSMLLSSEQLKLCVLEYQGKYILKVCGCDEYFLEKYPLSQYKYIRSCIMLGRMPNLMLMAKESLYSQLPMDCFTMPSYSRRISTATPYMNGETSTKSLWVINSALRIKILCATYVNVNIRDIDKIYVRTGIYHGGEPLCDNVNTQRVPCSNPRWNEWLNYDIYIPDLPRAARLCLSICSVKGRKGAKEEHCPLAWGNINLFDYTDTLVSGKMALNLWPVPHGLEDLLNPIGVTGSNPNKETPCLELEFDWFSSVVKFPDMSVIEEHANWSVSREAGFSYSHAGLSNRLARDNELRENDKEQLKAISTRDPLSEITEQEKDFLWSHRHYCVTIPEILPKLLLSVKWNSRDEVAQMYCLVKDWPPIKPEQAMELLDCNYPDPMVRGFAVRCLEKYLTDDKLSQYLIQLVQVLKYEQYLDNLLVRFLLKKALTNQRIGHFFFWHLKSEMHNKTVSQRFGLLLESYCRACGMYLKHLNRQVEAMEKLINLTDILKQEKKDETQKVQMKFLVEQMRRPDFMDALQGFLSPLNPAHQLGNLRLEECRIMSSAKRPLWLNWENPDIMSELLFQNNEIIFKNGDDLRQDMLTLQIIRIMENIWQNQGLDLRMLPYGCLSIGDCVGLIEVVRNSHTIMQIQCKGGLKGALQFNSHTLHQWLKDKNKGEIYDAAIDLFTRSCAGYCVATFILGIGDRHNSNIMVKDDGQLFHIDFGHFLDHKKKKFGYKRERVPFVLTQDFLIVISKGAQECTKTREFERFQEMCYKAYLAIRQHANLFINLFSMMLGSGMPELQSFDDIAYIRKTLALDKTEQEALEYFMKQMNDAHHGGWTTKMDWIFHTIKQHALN
T1 sequence (P27986 whole entry partner): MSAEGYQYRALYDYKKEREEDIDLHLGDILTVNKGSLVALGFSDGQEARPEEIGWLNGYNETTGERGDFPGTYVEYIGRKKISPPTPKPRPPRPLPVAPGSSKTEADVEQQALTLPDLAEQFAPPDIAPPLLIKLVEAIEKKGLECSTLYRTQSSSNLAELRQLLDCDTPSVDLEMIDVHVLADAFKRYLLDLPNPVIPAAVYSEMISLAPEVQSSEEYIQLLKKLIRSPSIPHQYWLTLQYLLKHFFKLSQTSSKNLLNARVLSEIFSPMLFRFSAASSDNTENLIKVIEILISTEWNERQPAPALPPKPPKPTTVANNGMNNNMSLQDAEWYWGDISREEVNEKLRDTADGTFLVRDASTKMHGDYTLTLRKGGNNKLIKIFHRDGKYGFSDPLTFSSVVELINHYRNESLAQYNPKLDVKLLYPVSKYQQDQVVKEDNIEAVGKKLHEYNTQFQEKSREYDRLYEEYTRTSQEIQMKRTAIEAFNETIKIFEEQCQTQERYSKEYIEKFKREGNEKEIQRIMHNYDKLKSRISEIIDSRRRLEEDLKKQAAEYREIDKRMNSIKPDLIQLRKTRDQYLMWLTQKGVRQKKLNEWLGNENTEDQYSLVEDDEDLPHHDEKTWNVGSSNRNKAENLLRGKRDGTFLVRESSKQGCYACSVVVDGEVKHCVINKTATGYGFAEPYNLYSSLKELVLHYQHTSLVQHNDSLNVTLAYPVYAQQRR

Regarding `CCN1CCN(c2ccc(Nc3cc(Nc4cccc5c4N(C(C)=O)CC5)ccn3)cc2)CC1` [Compound 1938], on full length p110α/p85α, the Kd came out at 16 ± 2 µM. Also, the “signalling impact (phosphoproteomics)” value in the experiment on PI3Kα-KO MEFs (PI3Kα-KO MEFs, 1938 5 μM) is on record as “little signalling impact”. Moreover, the “log2FC, PI3Ka KO 15’ 1938 vs PI3Ka KO DMSO” value in the experiment with PI3Kα-KO MEFs (phosphosite Cask_S544) is on record as -0.1046; in the experiment on PI3Kα-KO MEFs (phosphosite Cask_S545), 0.1395; in the experiment on PI3Kα-KO MEFs (phosphosite Gm42715_S1683), “Inf”. Further, the “log2FC, PI3Ka KO 4 h 1938 vs PI3Ka KO DMSO” value in the experiment on PI3Kα-KO MEFs (phosphosite Cask_S544) is “NegInf”; in the experiment on PI3Kα-KO MEFs (phosphosite Cask_S545), 0.1333; with PI3Kα-KO MEFs (phosphosite Gm42715_S1683), “Inf”.

One may read the Kd as the equilibrium constant for the complex coming apart.
